Patent US20230220021A1, “CYCLIC PEPTIDE INHIBITORS OF PSD-95 AND USES THEREOF” (University of Copenhagen, priority 2020, published 2023)
Where a SMILES comes first, the peptide text is derived from it. [ ]: non-standard residue; d: D form.

Columns and labels:
PSD-95-PDZ2 [1] = biological target: T1, PSD-95-PDZ2 (Homo sapiens, UniProt P78352); test: Fluorescence polarization (FP) competition assay against cyclic nNOS TAMRA probe; type: binding; conditions: for Ki: FP competition, cyclic nNOS TAMRA probe, mean of triplicates, N.B. = not binding, read-out: Ki; for Relative Ki (Ki mut/Ki WT): FP inhibition constant normalized to WT value
T1 construct: 7xHis (N); made in house; host or cells: Escherichia coli B21 pLys (for the mutants, 'as previously described')
Description: Fluorescence polarization (FP). FP assays were performed in a 384-well plate format. Fluorescence polarization was measured using a Safire 2 plate reader. The instrument Z-factor was optimized for each assay. The G-factor was calibrated to an initial milli polarization value of 20. The wavelength for the cyclic nNOS β-hairpin TAMRA probe was: ex: 530 nm and em: 580 nm. Every measurement was performed in NaPI 50 mM, 50 mM NaCl and 1% BSA at pH 7.2, 25° C. […] The curves were done in triplicates. Then, the polarization was fitted into a one-site binding model using Prism software 8.0 (GraphPad), from which the Kd can be measured. […] The mili polarization (mP) values were plotted as a function of peptide concentration and fitted to a sigmoidal dose-response curve using Prism software 8.0 (GraphPad). The Ki values were calculated according to Nikolovska-Coleska Z. et al.^40-41

PSD-95-PDZ2 [2] = biological target: T2, PSD-95-PDZ2 (Homo sapiens, UniProt P78352, V178C); test: SPOT peptide array screening with TAMRA labelled PSD-95-PDZ2; type: binding; conditions: SPOT array, TAMRA labelled PSD-95-PDZ2-V178C, normalized to WT
T2 construct: screened with the TAMRA labelled PSD-95-PDZ2-V178C domain; 7xHis (N); made in house
Description: SPOT peptide array synthesis. To generate the cyclic nNOSβ-hairpin arrays, we used the Intavis MultiPep spotter (Intavis Bioanalytical instruments). The membranes employed in this assay were SynthoPlan APEG CE (standard amino-modified acid stable sellulose membrane with a PEG-spacer), 10×15 cm with a loading of 400 nmol cm^−2. Solutions of 0.3 M Fmoc-AA-OH and 0.3 M Oxyma Pure were prepared in N-methyl-2-pyrrolidone (NMP). The activator solution consisted of 0.3 M DIC and 0.3 M of 2,4,6-trimethylpyridine (Collidine) in NMP. The capping solution consisted of a solution of 1 M acetic anhydride and 0.05 M of 4-dimethylaminopyridine (DMAP) in NMP. The deprotection solution consisted of 20% piperidine in NMP. AA couplings were performed 1 h,4 times. Deprotection of the Fmoc groups was performed 15min,2 times. Membrane washing between couplings or deprotections was performed with NMP and ethanol. Elongation of peptides in cellulose membrane was started by coupling first the Fmoc-PEG(9)-OH (Iris Biotech) and the subsequent mixture of Fmoc-Gly-OH (25%) and Boc-Gly-OH (75%) to lower the total loading of the membrane. Afterwards, the resin was capped with the capping solution and extensively washed and soaked in bromophenol blue (BPB) as a quality control to reveal the SPOTS with a functional amino group. Then, we coupled the quasi-orthogonal group Fmoc-Glu-PP, and carried out the rest of the synthesis until peptide completion. The cellulose bound linear peptides were finally treated with a solution of 95% DCM, 3% TIPS and 2% TFA 3 times, 20 min. to remove the quasi-orthogonal group. Afterwards, the membrane was washed 5 times with DCM and neutralized with 5% DIPEA in DCM. The membrane was then washed 5 more times with DCM, 5 times with NMP and cyclized with 0.3M PyAOP and 0.3M of DIPEA in DMF for 3 h or overnight. Finally, the membrane was dried with DCM and the side-chain protecting groups were cleaved with the standard deprotection cocktail (95% TFA, 2.5% H2O and 2.5% TIPS) or with reagent K [TFA 82.5%, phenol 5%, H2O 5%, thioanisole 5% and 1,2-ethanedithiol (EDT) 2.5%] for 3 h.
SPOT membrane screening. Membranes were incubated with PBS pH 7.2+0.5% bovine serum albumin (BSA) for 1 h. After the incubation period, the membrane was dried and scanned with an Amershan Typhoon scanner, at 400V, Cy3 wavelength (532 nm). A TIF file of the screening and a file with the blank values were generated using the Image Quant software. Afterwards, a solution of 50 nM of TAMRA labelled PSD-95-PDZ2 domain was prepared in PBS pH 7.2+0.5% BSA and was added to the membrane. The membrane was left incubating in a Polymax 1040 rocking table for 1 h protected from the light. Passed the incubation time, the excess of labelled protein was removed by washing the membrane 3 times with PBS+0.5% BSA. Finally, the membrane fluorescence values were measured with the Amershan Typhoon scanner at 400V, Cy3 wavelength (532 nm). Using the Image Quant software, the TIF image of the screening and a file with the fluorescence values of the peptides with the TAMRA labelled PSD-95-PDZ2 were generated. The blank was then subtracted from the fluorescence values of the peptides screened against the TAMRA labelled PSD-95-PDZ2.
A deep mutational scan was performed on the WT scaffold, exchanging each AA to the remaining 19 L-AAs. Each array contained three copies of the individual peptides as technical replicates. Additionally, three controls were included in the design: the cyclic nNOS β-hairpin WT control (positive control), a linear nNOS peptide (cyclization control) and a cyclic nNOS β-hairpin with a F111V substitution (negative control previously tested in FP competition assays). For array screening, a mutation in PSD-95-PDZ2 residue V178 (PSD-95-PDZ2-V178C) was introduced, which was subsequently labelled with TAMRA maleimide. […]

Compound	Ki (PSD-95-PDZ2 [1]) [µM]	Relative Ki (Ki mut/Ki WT) (PSD-95-PDZ2 [1])	Normalized SPOT fluorescence (Mut/WT) (PSD-95-PDZ2 [2])
CC[C@H](C)[C@@H]1NC(=O)[C@H]([C@@H](C)O)NC(=O)[C@H](CCCCN)NC(=O)[C@@H]2CCCN2C(=O)[C@H](C)NC(=O)CNC(=O)[C@H](CC(=O)O)NC(=O)CNC(=O)[C@H]([C@@H](C)O)NC(=O)[C@H](Cc2ccccc2)NC(=O)[C@H]([C@@H](C)O)NC(=O)[C@H]([C@@H](C)O)NC(=O)[C@H](CCC(=O)O)NC(=O)[C@H](CC(C)C)NC(=O)[C@H](Cc2c[nH]cn2)NC(=O)[C@H]([C@@H](C)O)NC(=O)[C@H](CCC(N)=O)NC(=O)CNC(=O)[C@H]2CCCN2C(=O)[C@H](CCC(N)=O)NC(=O)[C@H]([C@@H](C)O)NC(=O)[C@H](C(C)C)NC(=O)[C@H](CCCNC(=N)N)NC1=O [compound 66] (cyclo(THLETTFTGDGAPKTIRVTQ[dP]GQ))	–	0.83	1.30
CC[C@H](C)[C@@H]1NC(=O)[C@H]([C@@H](C)O)NC(=O)[C@H](CCCCN)NC(=O)[C@H](C)NC(=O)[C@H]([C@@H](C)O)NC(=O)CNC(=O)[C@H](CC(=O)O)NC(=O)CNC(=O)[C@H]([C@@H](C)O)NC(=O)[C@H](Cc2ccccc2)NC(=O)[C@H]([C@@H](C)O)NC(=O)[C@H]([C@@H](C)O)NC(=O)[C@H](CCC(=O)O)NC(=O)[C@H](CC(C)C)NC(=O)[C@H](Cc2c[nH]cn2)NC(=O)[C@H]([C@@H](C)O)NC(=O)[C@H](CCC(N)=O)NC(=O)CNC(=O)[C@H]2CCCN2C(=O)[C@H](CCC(N)=O)NC(=O)[C@H]([C@@H](C)O)NC(=O)[C@H](C(C)C)NC(=O)[C@H](CCCNC(=N)N)NC1=O [compound 67] (cyclo(THLETTFTGDGTAKTIRVTQ[dP]GQ))	–	1.07	0.93
CC[C@H](C)[C@@H]1NC(=O)[C@H](C)NC(=O)[C@H](CCCCN)NC(=O)[C@@H]2CCCN2C(=O)[C@H]([C@@H](C)O)NC(=O)CNC(=O)[C@H](CC(=O)O)NC(=O)CNC(=O)[C@H]([C@@H](C)O)NC(=O)[C@H](Cc2ccccc2)NC(=O)[C@H]([C@@H](C)O)NC(=O)[C@H]([C@@H](C)O)NC(=O)[C@H](CCC(=O)O)NC(=O)[C@H](CC(C)C)NC(=O)[C@H](Cc2c[nH]cn2)NC(=O)[C@H]([C@@H](C)O)NC(=O)[C@H](CCC(N)=O)NC(=O)CNC(=O)[C@H]2CCCN2C(=O)[C@H](CCC(N)=O)NC(=O)[C@H]([C@@H](C)O)NC(=O)[C@H](C(C)C)NC(=O)[C@H](CCCNC(=N)N)NC1=O [compound 69] (cyclo(THLETTFTGDGTPKAIRVTQ[dP]GQ))	17	11.33	0.09
CC[C@H](C)[C@@H]1NC(=O)[C@H]([C@@H](C)O)NC(=O)[C@H](CCCCN)NC(=O)[C@@H]2CCCN2C(=O)[C@H]([C@@H](C)O)NC(=O)CNC(=O)[C@H](CC(=O)O)NC(=O)CNC(=O)[C@H]([C@@H](C)O)NC(=O)[C@H](Cc2ccccc2)NC(=O)[C@H]([C@@H](C)O)NC(=O)[C@H]([C@@H](C)O)NC(=O)[C@H](CCC(=O)O)NC(=O)[C@H](CC(C)C)NC(=O)[C@H](Cc2c[nH]cn2)NC(=O)[C@H]([C@@H](C)O)NC(=O)[C@H](CCC(N)=O)NC(=O)CNC(=O)[C@H]2CCCN2C(=O)[C@H](CCC(N)=O)NC(=O)[C@H]([C@@H](C)O)NC(=O)[C@H](C(C)C)NC(=O)[C@H](C)NC1=O [compound 71] (cyclo(THLETTFTGDGTPKTIAVTQ[dP]GQ))	–	1.65	0.15
CC[C@H](C)[C@@H]1NC(=O)[C@H]([C@@H](C)O)NC(=O)[C@H](CCCCN)NC(=O)[C@@H]2CCCN2C(=O)[C@H]([C@@H](C)O)NC(=O)CNC(=O)[C@H](CC(=O)O)NC(=O)CNC(=O)[C@H]([C@@H](C)O)NC(=O)[C@H](Cc2ccccc2)NC(=O)[C@H]([C@@H](C)O)NC(=O)[C@H]([C@@H](C)O)NC(=O)[C@H](CCC(=O)O)NC(=O)[C@H](CC(C)C)NC(=O)[C@H](Cc2c[nH]cn2)NC(=O)[C@H]([C@@H](C)O)NC(=O)[C@H](CCC(N)=O)NC(=O)CNC(=O)[C@H]2CCCN2C(=O)[C@H](CCC(N)=O)NC(=O)[C@H]([C@@H](C)O)NC(=O)[C@H](C)NC(=O)[C@H](CCCNC(=N)N)NC1=O [compound 72] (cyclo(THLETTFTGDGTPKTIRATQ[dP]GQ))	–	1.49	0.09
CC[C@H](C)[C@@H]1NC(=O)[C@H]([C@@H](C)O)NC(=O)[C@H](CCCCN)NC(=O)[C@@H]2CCCN2C(=O)[C@H]([C@@H](C)O)NC(=O)CNC(=O)[C@H](CC(=O)O)NC(=O)CNC(=O)[C@H]([C@@H](C)O)NC(=O)[C@H](Cc2ccccc2)NC(=O)[C@H]([C@@H](C)O)NC(=O)[C@H]([C@@H](C)O)NC(=O)[C@H](CCC(=O)O)NC(=O)[C@H](CC(C)C)NC(=O)[C@H](Cc2c[nH]cn2)NC(=O)[C@H]([C@@H](C)O)NC(=O)[C@H](CCC(N)=O)NC(=O)CNC(=O)[C@H]2CCCN2C(=O)[C@H](CCC(N)=O)NC(=O)[C@H](C)NC(=O)[C@H](C(C)C)NC(=O)[C@H](CCCNC(=N)N)NC1=O [compound 73] (cyclo(THLETTFTGDGTPKTIRVAQ[dP]GQ))	–	1.03	0.61

The next lines start with the values.

Ki (PSD-95-PDZ2 [1]) [µM]	Relative Ki (Ki mut/Ki WT) (PSD-95-PDZ2 [1])	Normalized SPOT fluorescence (Mut/WT) (PSD-95-PDZ2 [2])	Compound
0.41	0.27	1.34	CC[C@H](C)[C@@H]1NC(=O)[C@H]([C@@H](C)O)NC(=O)[C@H](CCCCN)NC(=O)[C@@H]2CCCN2C(=O)[C@H]([C@@H](C)O)NC(=O)[C@H](C)NC(=O)[C@H](CC(=O)O)NC(=O)CNC(=O)[C@H]([C@@H](C)O)NC(=O)[C@H](Cc2ccccc2)NC(=O)[C@H]([C@@H](C)O)NC(=O)[C@H]([C@@H](C)O)NC(=O)[C@H](CCC(=O)O)NC(=O)[C@H](CC(C)C)NC(=O)[C@H](Cc2c[nH]cn2)NC(=O)[C@H]([C@@H](C)O)NC(=O)[C@H](CCC(N)=O)NC(=O)CNC(=O)[C@H]2CCCN2C(=O)[C@H](CCC(N)=O)NC(=O)[C@H]([C@@H](C)O)NC(=O)[C@H](C(C)C)NC(=O)[C@H](CCCNC(=N)N)NC1=O [compound 65] (cyclo(THLETTFTGDATPKTIRVTQ[dP]GQ))
1.76	1.17	0.06	CC(C)C[C@@H]1NC(=O)[C@H](Cc2c[nH]cn2)NC(=O)[C@H]([C@@H](C)O)NC(=O)[C@H](CCC(N)=O)NC(=O)CNC(=O)[C@H]2CCCN2C(=O)[C@H](CCC(N)=O)NC(=O)[C@H]([C@@H](C)O)NC(=O)[C@H](C(C)C)NC(=O)[C@H](CCCNC(=N)N)NC(=O)[C@H](C)NC(=O)[C@H]([C@@H](C)O)NC(=O)[C@H](CCCCN)NC(=O)[C@@H]2CCCN2C(=O)[C@H]([C@@H](C)O)NC(=O)CNC(=O)[C@H](CC(=O)O)NC(=O)CNC(=O)[C@H]([C@@H](C)O)NC(=O)[C@H](Cc2ccccc2)NC(=O)[C@H]([C@@H](C)O)NC(=O)[C@H]([C@@H](C)O)NC(=O)[C@H](CCC(=O)O)NC1=O [compound 70] (cyclo(THLETTFTGDGTPKTARVTQ[dP]GQ))
